Values joined by “and” are separate entries in the source; they are usually repeats but may differ in a detail not shown here. Identical values can stand only once. Like-named read-outs stand apart in the source and are kept apart here.
Experiments:
[1] = Pharmacokinetic studies in rat (i.v.); assay type: in vivo; settings: rat plasma; for Apparent t1/2 / half-life: estimated from 2 points only; for concentration at 0.25 h / concentration at 1 h / concentration at 4 h / half-life / AUC(0-t): male, Sprague-Dawley, rat, plasma, iv; for concentration at 0.25 h / concentration at 1 h / concentration at 4 h: read-out: Plasma concentration; for half-life: read-out: Apparent t1/2 (converted); for AUC(0-t): read-out: AUC0-tlast
Method: Animals: Male Sprague-Dawley rats (˜225-350 g) from Charles River Labs were acclimatized for a minimum of 5 days prior to start of study procedures. Body weights were recorded on the day of dosing.
Any abnormalities were documented including presence/absence of wet dog shakes/back muscle contractions (WDS/BMC).
Dosing: Formulations were administered intravenously (i.v.) via the tail vein using a 25 G needle connected to a 1 cc syringe.
The Compounds of Formula (I) were freshly prepared at the appropriate concentrations in 5% Tween-80 in saline.
Blood collection time (h): 0.25, 1 and 4.
Volume/time-point: ˜0.25 mL […] (saphenous vein).
Instrumentation: AB Sciex QTRAP 4000 or 6500 MS/MS system equipped with an LC system with a binary pump, a solvent degasser, a thermostatted column compartment and a multiplate autosampler.
Analysis software: Phoenix® WinNonlin® 8.3 (Pharsight, Certara, Mountainview, CA).
Analysis methods: non-compartmental analysis, linear up/log down trapezoidal rule.
PK parameters: t1/2 and AUC0-tlast were be estimated.
Volume/time-point: ˜0.25 mL (saphenous vein).
PK parameters: t1/2 and AUC0-tlast were estimated.

[2] = Human liver microsomes stability; assay type: in vitro ADME; settings: Human liver microsomes; for half-life at 2 μM / microsomal CLint at 2 μM: 2 μM compound, 0.5 mg/mL microsomes, 1 mM NADPH; for half-life at 2 μM: 37° C; for microsomal CLint at 2 μM: read-out: CLint (μL/min/mg protein); for CLint scaled at 2 μM: read-out: Scaled-up CLint
Procedure, shortened: (§1)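 Test compound at 2 μM final was incubated at 37° C with pooled human, male rat or male mouse liver microsomes in phosphate buffer with MgCl2 and 1 mM NADPH.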

[3] = Rat liver microsomes stability; assay type: in vitro ADME; settings: Rat liver microsomes; for microsomal CLint at 2 μM / half-life at 2 μM / CLint scaled at 2 μM: male; for microsomal CLint at 2 μM: rat, liver microsomes, read-out: CLint (μL/min/mg protein); for microsomal CLint at 2 μM / half-life at 2 μM: 2 μM compound, 0.5 mg/mL microsomes, 1 mM NADPH; for half-life at 2 μM: 37° C; for CLint scaled at 2 μM: read-out: Scaled-up CLint
Procedure, shortened: as §1

[4] = Mouse liver microsomes stability; assay type: in vitro ADME; settings: Mouse liver microsomes; for microsomal CLint at 2 μM / half-life at 2 μM / CLint scaled at 2 μM: male; for microsomal CLint at 2 μM: mouse, liver microsomes, read-out: CLint (μL/min/mg protein); for microsomal CLint at 2 μM / half-life at 2 μM: 2 μM compound, 0.5 mg/mL microsomes, 1 mM NADPH; for half-life at 2 μM: 37° C; for CLint scaled at 2 μM: read-out: Scaled-up CLint
[5] = I-17 1.33 mg/kg i.v., individual rats R07-R09, 1.33 mg/kg
[6] = 1.33 mg/kg, I-17 1.33 mg/kg i.v., Mean ± SD
[7] = 1.33 mg/kg, I-17 1.33 mg/kg i.v., individual rats R07-R09
[8] = I-12 1.2 mg/kg i.v., individual rats R01-R03, 1.2 mg/kg
[9] = 1.2 mg/kg, I-12 1.2 mg/kg i.v., individual rats R01-R03

**Q.** For `CSc1ccc2[nH]cc(CCN(C(C)C)C(C)C)c2c1` [Compound I-17, N-Isopropyl-N-(2-(5-(methylthio)-1H-indol-3-yl)ethyl)propan-2-amine], which “Plasma concentration” value ([1]; I-17 1.33 mg/kg i.v., 0.25 h, individual rats R07-R09, 1.33 mg/kg) is on record?
**A.** 197 ng/mL and 259 ng/mL

**Q.** And the “Plasma concentration” value ([1]; I-17 1.33 mg/kg i.v., 1 h, individual rats R07-R09, 1.33 mg/kg)?
**A.** 89.3 ng/mL and 120 ng/mL

**Q.** And the “Plasma concentration” value ([1]; I-17 1.33 mg/kg i.v., 4 h, individual rats R07-R09, 1.33 mg/kg)?
**A.** 17.7 ng/mL and 15.6 ng/mL

**Q.** And the “AUC0-tlast” value [1, 5]?
**A.** 363 ng·h/mL

**Q.** What about the “Apparent t1/2” value [1, 5] of the same compound?
**A.** 67.8 min and 57 min

**Q.** What about the concentration at 0.25 h ([1]; 1.33 mg/kg, I-17 1.33 mg/kg i.v., 0.25 h, Mean ± SD) of the same compound?
**A.** 198 ± 60 ng/mL

**Q.** What about the concentration at 0.25 h ([1]; 1.33 mg/kg, I-17 1.33 mg/kg i.v., 0.25 h, individual rats R07-R09) of the same compound?
**A.** 139 ng/mL

**Q.** And the concentration at 1 h ([1]; 1.33 mg/kg, I-17 1.33 mg/kg i.v., 1 h, Mean ± SD)?
**A.** 103 ± 15.5 ng/mL

**Q.** What about the concentration at 1 h ([1]; 1.33 mg/kg, I-17 1.33 mg/kg i.v., 1 h, individual rats R07-R09) of the same compound?
**A.** 101 ng/mL

**Q.** What about the concentration at 4 h ([1]; 1.33 mg/kg, I-17 1.33 mg/kg i.v., 4 h, Mean ± SD) of the same compound?
**A.** 19.7 ± 5.39 ng/mL

**Q.** What about the concentration at 4 h ([1]; 1.33 mg/kg, I-17 1.33 mg/kg i.v., 4 h, individual rats R07-R09) of the same compound?
**A.** 25.8 ng/mL

**Q.** What about the half-life [1, 6] of the same compound?
**A.** 72.6 ± 18.1 min

**Q.** And the AUC(0-t) [1, 6]?
**A.** 315 ± 41.4 ng·h/mL

**Q.** And the half-life [1, 7]?
**A.** 92.4 min

**Q.** And the AUC(0-t) [1, 7]?
**A.** 291 ng·h/mL

**Q.** What about the “Predicted hepatic CL” value [2] of the same compound?
**A.** 19.11 mL/min/kg

**Q.** And the half-life at 2 μM [2]?
**A.** 6.99 min

**Q.** What about the microsomal CLint at 2 μM [2] of the same compound?
**A.** 198 µL/min/mg

**Q.** What about the CLint scaled at 2 μM [2] of the same compound?
**A.** 249 mL/min/kg

**Q.** What about the “Predicted hepatic CL” value [3] of the same compound?
**A.** 30.01 mL/min/kg

**Q.** And the microsomal CLint at 2 μM [3]?
**A.** 36.7 µL/min/mg

**Q.** What about the half-life at 2 μM [3] of the same compound?
**A.** 37.8 min

**Q.** What about the CLint scaled at 2 μM [3] of the same compound?
**A.** 65.8 mL/min/kg

**Q.** And the “Predicted hepatic CL” value [4]?
**A.** >84.35 mL/min/kg

**Q.** And the microsomal CLint at 2 μM [4]?
**A.** > 307 µL/min/mg

**Q.** And the half-life at 2 μM [4]?
**A.** < 4.51 min

**Q.** And the CLint scaled at 2 μM [4]?
**A.** > 1340 mL/min/kg

**Q.** What does the source list for `CCN(CC)CCc1c[nH]c2ccc(SC)cc12` [Compound I-12, N,N-Diethyl-2-(5-(methylthio)-1H-indol-3-yl)ethan-1-amine]?
**A.** Plasma concentration ([1]; I-12 1.2 mg/kg i.v., 0.25 h, individual rats R01-R03, 1.2 mg/kg): 53.6 ng/mL and 72.4 ng/mL and 30.1 ng/mL; Plasma concentration ([1]; I-12 1.2 mg/kg i.v., 1 h, individual rats R01-R03, 1.2 mg/kg): 36.4 ng/mL and 29.7 ng/mL; Plasma concentration ([1]; I-12 1.2 mg/kg i.v., 4 h, individual rats R01-R03, 1.2 mg/kg): 3.88 ng/mL and 2.55 ng/mL and 6.48 ng/mL; AUC0-tlast [1, 8]: 97.8 ng·h/mL and 75.7 ng·h/mL; Apparent t1/2 [1, 8]: 46.7 min; concentration at 0.25 h ([1]; 1.2 mg/kg, I-12 1.2 mg/kg i.v., 0.25 h, Mean ± SD): 52 ± 21.2 ng/mL; concentration at 1 h ([1]; 1.2 mg/kg, I-12 1.2 mg/kg i.v., 1 h, Mean ± SD): 31.2 ± 4.6 ng/mL; concentration at 1 h ([1]; 1.2 mg/kg, I-12 1.2 mg/kg i.v., 1 h, individual rats R01-R03): 27.6 ng/mL; concentration at 4 h ([1]; 1.2 mg/kg, I-12 1.2 mg/kg i.v., 4 h, Mean ± SD): 4.3 ± 2 ng/mL; AUC(0-t) ([1]; 1.2 mg/kg, I-12 1.2 mg/kg i.v., Mean ± SD): 84.7 ± 11.6 ng·h/mL; half-life [1, 9]: 60.6 min; AUC(0-t) [1, 9]: 80.6 ng·h/mL; half-life ([1]; 1.2 mg/kg, I-12 1.2 mg/kg i.v., mean (n = 2)): 53.6 min; Predicted hepatic CL [2]: 15.84 mL/min/kg; half-life at 2 μM [2]: 25.8 min; microsomal CLint at 2 μM [2]: 53.8 µL/min/mg; CLint scaled at 2 μM [2]: 67.5 mL/min/kg; Predicted hepatic CL [3]: 30.14 mL/min/kg; microsomal CLint at 2 μM [3]: 37 µL/min/mg; half-life at 2 μM [3]: 37.4 min; CLint scaled at 2 μM [3]: 66.4 mL/min/kg; Predicted hepatic CL [4]: 82.50 mL/min/kg; microsomal CLint at 2 μM [4]: 226 µL/min/mg; half-life at 2 μM [4]: 6.13 min; CLint scaled at 2 μM [4]: 990 mL/min/kg

— US20250257034A1, “INDOLE DERIVATIVES AS SEROTONERGIC AGENTS USEFUL FOR THE TREATMENT OF DISORDERS RELATED THERETO” (priority 2023, published 2025)
